Results as given in publication PMC5122408, “High throughput chemical library screening identifies a novel p110-δ inhibitor that potentiates the anti-myeloma effect of bortezomib” (Oncotarget, 2016).

What was measured:
NCI-H460 = experiment: NCI-60 panel cell growth screen; format: cell-based, human; details: NCI-H460 (NSCLC)
NCI-H226 = experiment: NCI-60 panel cell growth screen; format: cell-based, human; details: NCI-H226 (NSCLC)
p110-γ = p110-γ (Homo sapiens, UniProt P48736); experiment: Kinase inhibitory profile / PIP3 production
Chain of p110-γ (P48736 whole entry): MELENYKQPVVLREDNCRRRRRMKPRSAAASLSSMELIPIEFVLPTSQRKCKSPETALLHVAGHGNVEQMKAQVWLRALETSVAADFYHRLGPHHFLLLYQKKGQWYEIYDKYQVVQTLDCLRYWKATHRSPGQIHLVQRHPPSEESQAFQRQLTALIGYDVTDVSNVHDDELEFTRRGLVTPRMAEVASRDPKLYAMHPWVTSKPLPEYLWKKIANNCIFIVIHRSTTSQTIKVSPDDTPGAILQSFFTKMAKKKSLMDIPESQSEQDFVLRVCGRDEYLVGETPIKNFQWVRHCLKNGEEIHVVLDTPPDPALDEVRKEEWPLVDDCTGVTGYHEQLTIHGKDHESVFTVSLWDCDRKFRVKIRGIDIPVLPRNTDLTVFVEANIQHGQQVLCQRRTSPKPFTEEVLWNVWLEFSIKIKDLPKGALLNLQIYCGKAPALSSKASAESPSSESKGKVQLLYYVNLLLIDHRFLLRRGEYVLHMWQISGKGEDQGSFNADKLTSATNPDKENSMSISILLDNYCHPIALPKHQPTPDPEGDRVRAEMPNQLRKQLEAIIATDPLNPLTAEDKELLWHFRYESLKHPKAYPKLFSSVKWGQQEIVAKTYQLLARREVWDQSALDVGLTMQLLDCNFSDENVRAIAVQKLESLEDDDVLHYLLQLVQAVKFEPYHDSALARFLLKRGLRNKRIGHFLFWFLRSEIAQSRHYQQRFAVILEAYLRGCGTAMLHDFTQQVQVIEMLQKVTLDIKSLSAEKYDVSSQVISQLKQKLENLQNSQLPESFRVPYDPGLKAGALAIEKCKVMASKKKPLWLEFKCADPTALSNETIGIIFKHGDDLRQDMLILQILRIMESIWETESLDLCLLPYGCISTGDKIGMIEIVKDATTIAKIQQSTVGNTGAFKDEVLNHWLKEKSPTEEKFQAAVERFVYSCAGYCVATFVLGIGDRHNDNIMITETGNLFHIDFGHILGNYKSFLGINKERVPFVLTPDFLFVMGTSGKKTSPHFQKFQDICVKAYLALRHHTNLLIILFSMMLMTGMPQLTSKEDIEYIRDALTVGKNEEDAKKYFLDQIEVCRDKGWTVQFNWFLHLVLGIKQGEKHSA
Procedure: To directly assess PI3K activity, PI3K was isolated by immunoprecipitation using an antibody to the p85 adapter subunit and the ability of the co-precipitated catalytic p110 subunit to convert PIP2 to PIP3 in a kinase reaction assessed by measuring the amount of PIP3 generated using a competitive ELISA [40, 41]. […] Lysates were centrifuged at 13,000 × rpm for 10 min and supernatants stored at −80°C. Frozen lysates were thawed and PI3K immunoprecipitated with 5 μl anti-PI3K p85 (Cell Signaling Technology, Danvers, MA) for 1 h at 4°C, followed by the addition of 60 μl of a 50% slurry of Protein A agarose beads for 1 h at 4°C. The immunoprecipitate was collected by centrifugation at 13,000 × rpm for 10 sec, washed 3 times in buffer A + 1% NP40, thrice with 0.1 M Tris-HCl, pH 7.4, 5 mM LiCl, 0.1 mM Na orthovanadate and twice with 10 mM Tris-HCl, pH 7.4, 150 mM NaCl, 5 mM ethylenediaminetetraacetic acid (EDTA), 0.1 mM Na orthovanadate. […] Reactions were incubated for 3 h at 37°C with 40 pmol PIP2 (Echelon Biosciences, Salt Lake City, UT). Reactions were stopped with EDTA (5 mM) and centrifuged at 13,000 × rpm at 4°C. Supernatants were transferred to a microtitre plate for a competitive ELISA (Echelon Biosciences) to quantify PIP3 generated. […] Absorbance was measured (450 nm) and PIP3 quantified using a standard curve generated with experimental samples and plotted on a log scale.

SR = experiment: NCI-60 panel cell growth screen; format: cell-based, human; details: SR (Leukemia)
CCRF-CEM = experiment: NCI-60 panel cell growth screen; format: cell-based, human; details: CCRF-CEM (Leukemia)
HOP-62 = experiment: NCI-60 panel cell growth screen; format: cell-based, human; details: HOP-62 (NSCLC)
COLO205 = experiment: NCI-60 panel cell growth screen; format: cell-based, human; details: COLO205 (Colon cancer)
ERBB4 = ERBB4 (Homo sapiens, UniProt Q15303); experiment: Kinase inhibitory profile; format: biochemical; details: Other Clinically-relevant Kinases; 10-point concentration assays
Chain of ERBB4 (Q15303 26-1308): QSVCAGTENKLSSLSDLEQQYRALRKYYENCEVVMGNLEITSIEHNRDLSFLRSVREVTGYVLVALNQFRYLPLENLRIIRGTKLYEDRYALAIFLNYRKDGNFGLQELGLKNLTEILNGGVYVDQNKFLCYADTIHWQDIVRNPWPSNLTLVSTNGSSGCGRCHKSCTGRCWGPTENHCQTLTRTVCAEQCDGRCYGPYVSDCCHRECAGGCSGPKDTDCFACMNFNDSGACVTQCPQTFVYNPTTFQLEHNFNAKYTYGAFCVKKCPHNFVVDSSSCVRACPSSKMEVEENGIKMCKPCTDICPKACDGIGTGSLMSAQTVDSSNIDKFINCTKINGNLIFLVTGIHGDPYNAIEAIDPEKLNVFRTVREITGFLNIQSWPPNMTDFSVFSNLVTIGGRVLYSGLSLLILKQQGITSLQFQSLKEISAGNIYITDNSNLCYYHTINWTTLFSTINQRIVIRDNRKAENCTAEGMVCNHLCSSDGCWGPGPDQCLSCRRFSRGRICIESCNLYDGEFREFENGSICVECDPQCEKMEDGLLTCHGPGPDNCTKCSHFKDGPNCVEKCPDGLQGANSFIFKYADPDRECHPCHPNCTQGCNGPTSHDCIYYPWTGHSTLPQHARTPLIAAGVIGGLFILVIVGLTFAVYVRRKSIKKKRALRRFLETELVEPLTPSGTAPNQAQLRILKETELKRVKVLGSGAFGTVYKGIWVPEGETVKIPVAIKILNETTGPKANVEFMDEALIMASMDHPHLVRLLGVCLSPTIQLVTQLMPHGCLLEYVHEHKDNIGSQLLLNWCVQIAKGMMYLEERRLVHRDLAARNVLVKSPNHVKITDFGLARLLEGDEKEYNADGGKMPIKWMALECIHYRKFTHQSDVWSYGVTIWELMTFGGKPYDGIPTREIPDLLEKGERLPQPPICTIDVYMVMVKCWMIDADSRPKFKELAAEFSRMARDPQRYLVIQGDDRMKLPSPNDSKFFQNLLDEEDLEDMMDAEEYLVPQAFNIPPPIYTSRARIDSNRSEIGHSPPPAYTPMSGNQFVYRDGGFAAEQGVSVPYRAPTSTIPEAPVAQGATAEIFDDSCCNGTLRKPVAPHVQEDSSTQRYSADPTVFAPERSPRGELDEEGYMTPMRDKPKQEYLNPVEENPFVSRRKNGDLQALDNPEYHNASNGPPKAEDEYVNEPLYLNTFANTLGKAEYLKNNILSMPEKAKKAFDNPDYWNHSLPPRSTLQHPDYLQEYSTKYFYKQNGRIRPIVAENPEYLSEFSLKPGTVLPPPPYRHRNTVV

SNB-75 = experiment: NCI-60 panel cell growth screen; format: cell-based, human; details: SNB-75 (CNS Cancer)
[1] = read-out: LC50 (the source's name)

For “N-[4-hydroxy-3-(8-quinolinylthio)-1-naphthyl]benzenesulfonamide [DT97]”, the GI50 (NCI-H460) was 499 nM, the TGI (NCI-H460) was 1.37E-5 and the “Percent Growth” value (NCI-H460; log concentration −4.0) was −48%. For the same substance, the “Percent Growth” value (NCI-H460; log concentration −5.0) was 7%, the “Percent Growth” value (NCI-H460; log concentration −6.0) was 29% and the “Percent Growth” value (NCI-H460; log concentration −7.0) was 98%. The “Percent Growth” value (NCI-H460; log concentration −8.0) was 101%, the GI50 (NCI-H226) was 2450 nM and the TGI (NCI-H226) was 2.54E-5. The “Percent Growth” value (NCI-H226; log concentration −4.0) was −40%, the “Percent Growth” value (NCI-H226; log concentration −5.0) was 27% and the “Percent Growth” value (NCI-H226; log concentration −6.0) was 65%. For the same substance, the “Percent Growth” value (NCI-H226; log concentration −7.0) was 94%, the “Percent Growth” value (NCI-H226; log concentration −8.0) was 92% and the “Inhibitory profile (kinase inhibition)” value (p110-γ; Class I PI3Ks, 10-point concentration assays) was “none”. The “production of PIP3 (dose-dependent effect)” value (p110-γ; p110-γ isoform, Figure 4B) was “no effect”, the GI50 (SR) was 426 nM and the TGI (SR) was 1.72E-5. For the same substance, the “Percent Growth” value (SR; log concentration −4.0) was −15%, the “Percent Growth” value (SR; log concentration −5.0) was 5% and the “Percent Growth” value (SR; log concentration −6.0) was 13%. The “Percent Growth” value (SR; log concentration −7.0) was 113%, the “Percent Growth” value (SR; log concentration −8.0) was 109% and the CC50 (SR; [1]) was greater than 100000 nM. For the same substance, the GI50 (CCRF-CEM) was 426 nM, the TGI (CCRF-CEM) was 1.60E-5 and the “Percent Growth” value (CCRF-CEM; log concentration −4.0) was −7%. For the same substance, the “Percent Growth” value (CCRF-CEM; log concentration −5.0) was 2%, the “Percent Growth” value (CCRF-CEM; log concentration −6.0) was 17% and the “Percent Growth” value (CCRF-CEM; log concentration −7.0) was 106%. The “Percent Growth” value (CCRF-CEM; log concentration −8.0) was 104%, the CC50 (CCRF-CEM; [1]) was greater than 100000 nM and the GI50 (HOP-62) was 1010 nM. For the same substance, the TGI (HOP-62) was 2.54E-5, the “Percent Growth” value (HOP-62; log concentration −4.0) was −37% and the “Percent Growth” value (HOP-62; log concentration −5.0) was 26%. The “Percent Growth” value (HOP-62; log concentration −6.0) was 50%, the “Percent Growth” value (HOP-62; log concentration −7.0) was 95% and the “Percent Growth” value (HOP-62; log concentration −8.0) was 93%. For the same substance, the GI50 (COLO205) was 1710 nM, the TGI (COLO205) was 3.70E-6 and the “Percent Growth” value (COLO205; log concentration −4.0) was −59%. The “Percent Growth” value (COLO205; log concentration −5.0) was −64%, the “Percent Growth” value (COLO205; log concentration −6.0) was 85% and the “Percent Growth” value (COLO205; log concentration −7.0) was 99%. For the same substance, the “Percent Growth” value (COLO205; log concentration −8.0) was 94%, the CC50 (COLO205; [1]) was 8030 nM and the “Inhibitory profile (kinase inhibition)” value (ERBB4) was “+”. For the same substance, the GI50 (SNB-75) was 3230 nM, the TGI (SNB-75) was 1.69E-5 and the “Percent Growth” value (SNB-75; log concentration −4.0) was −100%. For the same substance, the “Percent Growth” value (SNB-75; log concentration −5.0) was 29%, the “Percent Growth” value (SNB-75; log concentration −6.0) was 75% and the “Percent Growth” value (SNB-75; log concentration −7.0) was 73%. For the same substance, the “Percent Growth” value (SNB-75; log concentration −8.0) was 76% and the CC50 (SNB-75; [1]) was 41200 nM.
